# Results published in patent US20050233461A1, “High-throughput methods and systems for screening of compounds to treat/prevent kidney disorders” (priority 2002, published 2005).
# Structures can show the parent of a compound that is named as a salt. Where two headings read alike, the source gives them in different places.
# Key:
# [1] = high throughput screen of components for modifying calcium oxalate crystal growth (crystal imaging)
# Protocol: Next, the seed crystals are incubated in supersaturated calcium oxalate medium. This medium may have one or more of components for testing. Nucleation and changes in a crystal property (such as crystal growth) are detected by comparing signals obtained from a sample at different times and/or after changing the medium. For example, a signal for a sample can be taken at the beginning of incubation, and then optionally at one or more times during incubation, and then at the end of incubation. The number and time for obtaining signals from or screening a sample will depend on the particular experiment and will be readily apparent to the skilled artisan. These signals or screens of samples may be photographs of birefringent spots, the size of the spots (measured in pixels), calculations based on the pixels and their distribution in a birefringence- or plain light-based image, in-situ Raman spectroscopy to monitor growth or determine the composition of one or more crystals, signals for the concentration of component(s) in the medium, and the like.
# FIG. 2 illustrates one such embodiment. Sodium oxalate and calcium chloride solutions are prepared during steps 200 and 205 respectively. Following mixing during step 210 to obtain supersaturated calcium oxalate medium, also described in FIG. 1, monitoring while incubating during step 215 detects the formation of seed crystals. Next, the medium is removed during step 220 followed by addition of fresh medium containing test components during step 225. The test component(s) are preferably added to the sodium oxalate solution used to make the medium. Alternatively, they could be added in the calcium chloride solution for making the medium, or in a separate solution, or as solids, or even mixed in, or any combination thereof.
# Some processing of arrays is also seen in the method illustrated in FIG. 2. Further incubation of seed crystals during step 230 and imaging during step 235 provide data about the growth and/or nucleation of crystals. The high throughput method of FIG. 2 includes estimating a nucleation and/or growth rate from a number of birefringent spots. An increase in the nucleation rate, or observing little or no crystal growth, ascribable to a component may indicate a therapeutic use for treating diseases, conditions, or disorders associated with calculi or crystal deposition (e.g., nephrolithiasis) by reducing the average size of the crystals, stones or calculi to facilitate excretion. Alternatively, a significant decrease in the nucleation rate ascribable to a component may indicate a therapeutic use for treating diseases, conditions, or disorders associated with calculi or crystal deposition (e.g., nephrolithiasis) by decreasing the rate of stone or calculi formation.
# The photograph of the illuminated crystals, e.g., obtained in step 235 of FIG. 2, may be further analyzed to estimate a number of pixels corresponding to a crystal spot.
# Other properties of crystals may also be obtained from the pixel measurements in step 240 of FIG. 2. The photograph of the illuminated crystals also allows an estimate of a long and a short dimension among many possible measures. These reflect the habit of the crystal spot and may be used to predict crystals that are likely to be excreted more easily. For instance, small and even shaped crystals are more likely to be excreted than spiny crystal shapes, thus permitting high throughput screening for promising therapeutic candidates.
# In FIG. 7, during step 700 one or more substances of interest are identified. […] The identified substances, added in solutions of calcium chloride or sodium oxalate, are subjected to screening via a high-throughput growth inhibitor screen during step 705. Accordingly, growth of crystals in supersaturated calcium oxalate medium is observed in the presence or absence of identified substances. Such growth may be of seed crystals or may include nucleation of crystals as well as growth.
# [2] = turbidity based assay of crystal nucleation and growth in supersaturated calcium oxalate solutions; conditions: FIG. 10 and FIG. 11
# Source text: FIG. 10 illustrates the effect of citrate on growth and nucleation of crystals in supersaturated calcium oxalate solutions as measured by turbidity at 620 nm.
# FIG. 11 is an example of turbidity based assay showing crystal nucleation and growth in supersaturated calcium oxalate solutions prepared in accordance with the method of FIG. 1.
# The system also includes means for preparing metastable formulations such as supersaturated solutions. In a preferred design, supersaturated media for nucleating and growing crystals are prepared by mixing two stable components to give rise to a metastable supersaturated solution. […] This supersaturated mixture may be monitored after incubation for a predetermined duration during step 115. […]
# Preferably, calcium oxalate crystals are also used to seed the supersaturated calcium oxalate solution in some samples to assess their growth or the lack thereof. Absorbance at about 620 nm provides a measure of turbidity and a decrease in turbidity indicates either aggregation or crystals/precipitate or reduction in the precipitation/crystal growth of calcium oxalate crystals. It should be noted that turbidity may be measured at other wavelengths as well including wavelengths corresponding to visible light and ultraviolet light. Preferably, but not as a requirement, turbidity is measured by evaluating light scattered at an angle to the incident light. […]
# [3] = supersaturated calcium oxalate, amounts and concentrations in FIGS. 9A and 9B
Molecule,"large (intermediate to large) crystals: number / size observed [1, 3]","overall effect on calcium oxalate crystals (number of crystals) [1, 3]",further results
"NS(=O)(=O)c1cc(C(=O)O)c(NCc2ccco2)cc1Cl [furosemide, reference compound]",many more large crystals,–,–
"CCCN(CCC)S(=O)(=O)c1ccc(C(=O)O)cc1 [probenicid, reference compound]",–,little effect,"small crystals: number observed [1, 3]: a few more small crystals"
"CN(C)c1ccc2nc3ccc(=[N+](C)C)cc-3sc2c1 [methylene blue, reference compound]",reduction in large crystals,–,–
O=C(O)C(O)c1ccc(Br)cc1 (stereo not shown) [4-bromomandelic acid],larger sized crystals being formed,–,"crystal habit / form of material observed [1, 3]: absence of plate like structures"
"O=C(O)C1OC(C(=O)O)C(C(=O)O)C1C(=O)O (stereo not shown) [tetrahydrofuran-2,3,4,5-tetracarboxylic acid]",reduced number of intermediate to large crystals,–,"small crystals: number observed [1, 3]: increased number of small crystals"
CCCCCCCCCCCCCCCCC(C(=O)O)C(O)(CC(=O)O)C(=O)O (stereo not shown) [agaric acid],–,–,"crystal habit / form of material observed [1, 3]: formation of an emulsion/suspension"
atrolactic acid hemihydrate,–,–,large (intermediate to large) crystals: number / size observed [1]: reduction in large crystals
CC(=O)OC[C@H]1O[C@@](COC(C)=O)(O[C@H]2O[C@H](COC(C)=O)[C@@H](OC(C)=O)[C@H](OC(C)=O)[C@H]2OC(C)=O)[C@@H](OC(C)=O)[C@@H]1OC(C)=O [sucrose octaacetate],–,increased number (countable) of crystals,–
O=C(O)[C@H](O)[C@@H](O)[C@H](O[C@@H]1O[C@H](CO)[C@H](O)[C@H](O)[C@H]1O)[C@H](O)CO [lactobionic acid],–,many small and large crystals,–
O=C(O)CNC(=O)c1ccccc1 [hippuric acid],–,little effect,–
O=C(O)C(O)c1ccccc1 (stereo not shown) [mandelic acid],–,little effect,–
O=C(O)CC(O)(CC(=O)O)C(=O)O [sodium citrate],–,–,"turbidity of supersaturated calcium oxalate compared to supersaturated calcium oxalate by itself ([2]; 3 mM sodium citrate, turbidity at 620 nm): dramatically reduces the turbidity; formation of calcium oxalate crystals in a supersaturated calcium oxalate solution [2]: effective, although limited, in reducing the formation of calcium oxalate crystals"
"COc1ccc2c(c1)c(CC(=O)O)c(C)n2C(=O)c1ccc(Cl)cc1 [indomethacin, reference compound]",reduction in the number of large crystals,–,"small crystals: number observed [1, 3]: little change in the number of small crystals"
O=C([O-])[C@H](O)[C@@H](O)[C@H](O[C@@H]1O[C@H](CO)[C@H](O)[C@H](O)[C@H]1O)[C@H](O)CO.O=C([O-])[C@H](O)[C@@H](O)[C@H](O[C@@H]1O[C@H](CO)[C@H](O)[C@H](O)[C@H]1O)[C@H](O)CO.[Ca+2] [lactobionic acid hemi calcium salt],presence of very large crystals in some wells,–,–
